The source of these data is ChEMBL document CHEMBL1149826, “Chemical constituents and diversity of Ligularia lankongensis in Yunnan Province of China” (2008).

Calls of active or inactive are those of the source. The calls are words filed in the database; no cut-off is given here.

This test concerns Bacillus subtilis. Description: Antibacterial activity against Bacillus subtilis PCI219 assessed as inhibition zone diameter at […] after 24 hrs by paper disk diffusion assay. Format: functional.

For `C=C(C(CC1OC1(C)C)OC(=O)/C(C)=C\C)[C@H]1[C@H](OC(=O)/C(C)=C\C)[C@H]2O[C@@]2(C)[C@@H](O)[C@H]1OC(=O)/C(C)=C\C` (some centres not stated), the result was Active. In the case of `CC[C@H]1OC(=O)[C@H](C)[C@@H](O[C@H]2C[C@@](C)(OC)[C@@H](O)[C@H](C)O2)[C@H](C)[C@@H](O[C@@H]2O[C@H](C)C[C@H](N(C)C)[C@H]2O)[C@](C)(O)C[C@@H](C)C(=O)[C@H](C)[C@@H](O)[C@]1(C)O` [ERYTHROMYCIN], the zone of inhibition at 10 mg/kg (PCI219, 24 h, read-out: IZ) turned out to be 31 mm.
